Columns and labels:
neuroblastoma cells = experiment: Viability of neuroblastoma cells with N- and C-terminal CNBr fragments of HBB; format: cell-based, human; conditions: MTS-based proliferation assay and trypan blue exclusion; 72 hr; FIG. 5B
Experimental: (§1) Neuroblastoma cells were seeded (3×10^4 per well) in a 96-well flat-bottomed tissue culture plate. After an incubation of 24 hr, cells were washed and incubated with the relevant factors (detailed in the following sections) diluted in starvation medium (RPMI-1640 containing 5% bovine serum albumin (BSA); Biological Industries, Kibbutz Beit Haemek, Israel; Sigma-Aldrich). Cell viability under normal conditions (starvation medium containing BSA) or after incubation with the relevant factors was monitored after 72 hr using an XTT (XTT cell proliferation kit; Biological Industries) or MTS-based (CellTiter 96® AQueous One Solution Cell Proliferation Assay; Promega) viability assays according to manufacturer instructions. Cells were also counted using the trypan-blue exclusion assay to verify the results obtained by XTT and MTS-based viability assays.
Human HBB was incubated at a concentration of 2 mg/ml with 50 mg/ml CNBr (Sigma-Aldrich) in 5% trifluoroacetic acid (Halocarbon). […] After 72 hr of incubation cell viability was assessed as described below.
In order to pin-point the active fragment of the human HBB protein, the protein was cleaved to two fragments using cyanogen bromide (CNBr). […] Significance was evaluated using Student's t-test for each variant incubated with N- or C-terminal fragments of human HBB compared to incubation with control media (not shown).

[1] = system: MicroNB cells inoculated to the adrenal gland; experiment: Orthotopic MicroNB neuroblastoma model, HBB11p i.v. or inhaled versus PBS (Example 7); format: in vivo, athymic nude mice; conditions: for size of local tumors versus PBS-treated mice: FIG. 7B, 7C
Experimental: (§2) An orthotopic inoculation to the adrenal gland of athymic nude mice was performed with either 50 μl of PBSX1 supplemented with 5% BSA, or with 1×10^6 MicroNB cells (generated as described previously (Edry Botzer et al., 2011)) suspended in 50 μl of PBSX1 supplemented with 5% BSA. The intra-adrenal inoculation was performed as detailed here (Nevo et al., 2008). In short, anesthesia was induced by ketamine (100 mg/kg body weight) and 2% xylazine (10 mg/kg body weight) administered intraperitoneally. Tumor cells (1×10^6/50 μl) or PBSX1 5% BSA (50 μl) were injected orthotopically into the left adrenal gland of nude mice.
(§3) The development of local tumors in the adrenal gland was monitored and measured weekly with an external digital caliper. The tumor volume in mm^3 was calculated by the ellipsoid volume calculation formula: Volume=[…] (Tomayko and Reynolds, 1989). At the end of the experiments, local adrenal tumors were weighed.
(§4) For examining the presence of micrometastatic cells in the lungs and bone marrow of mice, organs were harvested at the end of the experiment, and immediately snap frozen in dry ice. RNA was isolated from frozen tissues and used for the generation of first-strand cDNA using an M-MLV Reverse Transcriptase (See below, “RNA preparation and Reverse Transcription Polymerase Chain Reaction”). Quantification of human cells in mouse organs was determined by quantitative real-time PCR (qRT-PCR) assays.
(§5) Mice were orthotopically inoculated with MicroNB cells to the adrenal gland to generate local adrenal tumors and lung and bone marrow micrometastasis (see “Orthotopic inoculation of tumor cells”). Fourteen days post tumor cell inoculation mice were treated either intravenously or intranasally with 1 mg/kg (0.02 mg/mouse) of the short inhibitory human HBB peptide, Metox, once a week for 8 weeks.
(§6) For intranasal administration of Metox, the lyophilized peptide was dissolved prior to each administration in Dimethyl Sulfoxide (DMSO) (Sigma-Aldrich) to a concentration of 0.013 mg/μl, and then diluted in sterile PBSX1 to a concentration of 0.4 μg/μl. The dissolved peptide was filtered (0.2 μm) and mice were forced to inhale 50 μl of Metox (0.02 mg/mouse). Control group was forced to inhale 50 μl of a control scrambled peptide, scrambled-Metox (see “Solid-phase synthesis of Metox and scrambled-Metox peptides”).
Twenty four mice were orthotopically inoculated to the adrenal gland with MicroNB cells. Two weeks post inoculation, mice were either intravenously (IV) injected with HBB11p or PBS, or forced to inhale a droplet of soluble HBB11p, once a week for 8 weeks (FIG. 7A). Mice were monitored weekly for tumor volume. At the end of the experiment, local tumors were weighed and organs were harvested and examined for human neuroblastoma cells and for HBB2 expression using real time PCR (FIG. 7A).

[2] = system: MicroNB cells inoculated to the adrenal gland; experiment: Orthotopic MicroNB neuroblastoma model, intranasal Metox versus scrambled-Metox (Example 8); format: in vivo, athymic nude mice; conditions: intranasal 1 mg/kg once a week for 8 weeks
Experimental: as §2, §3, §4, §5, §6
In an experiment similar to that described in Example 7, athymic nude mice were orthotopically inoculated with MicroNB cells to the adrenal gland. […] Mice were monitored for tumor volume on a weekly basis.

[3] = system: MicroNB cells (human neuroblastoma lung micrometastatic variant, MHH-NB11); experiment: MTS-based viability assay, MicroNB cells; format: cell-based; conditions: 72 hr incubation, versus control media
Text: (§7) The human neuroblastoma lung micrometastatic (MicroNB) and macrometastatic (MacroNB) variants were generated using a mouse model for human neuroblastoma metastasis (Nevo et al., 2008) from the parental cell lines MHH-NB11 (Pietsch et al., 1988) and SH-SY5Y (Biedler et al., 1978) as detailed here (Edry Botzer et al., 2011), and were maintained in culture as previously described (Nevo et al., 2008). The MicroNB and MacroNB variants were previously designated DisNB and MetNB, respectively (Edry Botzer et al., 2011). Authentication of MicroNB and MacroNB cells was performed by short tandem repeat analysis of DNA using the Type-it Microsatellite PCR Kit (Qiagen, Valencia, Calif.), for the genes published by the American Type Culture Collection (ATCC) (Manassas, Va.). The parental cell line MHH-NB11 was kindly provided by Dr. T. Pietsch (Department of Neuropathology, University of Bonn Medical Center, Bonn, Germany).
as §1
Circular dichroism analysis of human hemoglobin (HB), hemoglobin subunit alpha (HBA) and subunit beta (HBB) indicated a helical structure for all three proteins (FIG. 3C). […] Neuroblastoma cells were seeded (3×10^4 per well) in a 96 well flat-bottomed tissue culture plate. After 24 hr of incubation cells were washed and incubated with human HBB dissolved in starvation medium (RPMI 5% BSA) to the indicated concentrations. Cell viability under normal conditions (starvation medium) or after incubation with human HBB was monitored after an incubation of 72 hr using an MTS-based viability assay (CellTiter 96® AQueous One Solution Cell Proliferation Assay, Promega) according to the manufacturer instructions. Data are means of three independent experiments±SD. Significance was evaluated using Student's t-test for each variant incubated with human HBB compared to incubation with control media (con).

[4] = system: MacroNB cells (human neuroblastoma lung macrometastatic variant); experiment: MTS-based viability assay, MacroNB cells; format: cell-based; conditions: 72 hr incubation, versus control media
Text: as §7
as §1, with “After an incubation of 24 hr, cells were washed and incubated with the relevant factors (detailed in the following sections) diluted in starvation medium (RPMI-1640 containing 5% bovine serum albumin (BSA); Biological Industries, Kibbutz Beit Haemek, Israel; Sigma-Aldrich).” left out
Circular dichroism analysis of human hemoglobin (HB), hemoglobin subunit alpha (HBA) and subunit beta (HBB) indicated a helical structure for all three proteins (FIG. 3C). […] Cell viability under normal conditions (starvation medium) or after incubation with human HBB was monitored after an incubation of 72 hr using an MTS-based viability assay (CellTiter 96® AQueous One Solution Cell Proliferation Assay, Promega) according to the manufacturer instructions. […] Significance was evaluated using Student's t-test for each variant incubated with human HBB compared to incubation with control media (con).

[5] = system: MCF-7 breast carcinoma cells; experiment: Viability of cancerous cell lines, MCF-7; conditions: MTS-based assay; FIG. 3E
Experimental: as §1
When incubated with the highest amount of HBB (100 μg), the viability of the following cell lines was inhibited: the breast cancer cell lines T47D and MCF-7, the prostate cancer cell line 22RVi, the cervical cancer cell line Hela, and the melanoma cell lines RALL and RKTJ.

[6] = HBB11p once a week for 8 weeks, data not shown

## C-terminal fragment: 91 amino acid C-terminal fragment of human HBB from CNBr cleavage, SEQ ID NO:4
Neuroblastoma cells
  influence on neuroblastoma cell viability (in words): responsible for the inhibitory activity

## ENFRLLGNVLVCVLA (listed as Homo sapiens) [HBB11p]
[1]; [6]
  bone marrow metastasis versus PBS-treated mice: significantly inhibited as well
  liver metastasis versus PBS-treated mice: significantly inhibited as well
  spleen metastasis versus PBS-treated mice: significantly inhibited as well
[1]; HBB11p once a week for 8 weeks, real time PCR, FIG. 7D
  lung metastasis versus PBS-treated mice: significantly inhibited
[1]; inhaled droplet of HBB11p once a week for 8 weeks
  size of local tumors versus PBS-treated mice: significantly smaller
[1]; intravenous HBB11p once a week for 8 weeks
  size of local tumors versus PBS-treated mice: significantly smaller
[2]; 70 days post inoculation, FIG. 8C, 8D
  weight of local tumors of scrambled-Metox treated mice relative to Metox treated mice: significantly higher
[2]; Real-Time PCR, FIG. 8E
  metastatic load of MicroNB cells in lungs versus scrambled-Metox: significantly lower
[2]; Real-Time PCR, FIG. 8F
  metastatic load of MicroNB cells in bone marrow versus scrambled-Metox: significantly lower
[2]; twenty days after inoculation, more significant with time, FIG. 8B
  local tumor volume, Metox versus scrambled-Metox treated mice: a difference was apparent
[3]; listed as Peptide number 11
  influence on viability of MicroNB cells (in words): significantly inhibited the viability
[3]; listed as peptide 11
  influence on viability of MicroNB cells (in words): even greater than that caused by HBB

## HBA: alpha subunit of human hemoglobin, HPLC-separated from native human hemoglobin [reference compound]
[4]
  influence on viability of MacroNB cells (in words): did not influence cell viability
[3]
  influence on viability of MicroNB cells (in words): did not influence cell viability

## HBB2: beta 2 subunit of mouse hemoglobin, SEQ ID NO:1; HPLC peak no. 4 of mouse lung-derived factors
[4]
  influence on viability of MacroNB cells (in words): inhibited cell viability
[3]
  influence on viability of MicroNB cells (in words): inhibited cell viability

## N-terminal fragment: N-terminal fragment of human HBB from CNBr cleavage, SEQ ID NO:3
Neuroblastoma cells
  influence on neuroblastoma cell viability (in words): exhibited an inhibitory effect however to a lesser extent

## whole human hemoglobin protein: native human hemoglobin (Sigma), whole protein [reference compound]
[5]
  influence on viability of MCF-7 breast carcinoma cells (in words): inhibited cell viability as well but not to the same extent as HBB
